Biological target: T1, AXL (Homo sapiens, UniProt P30530)
T1 construct: tumor cell lines expressing high levels of endogenous AXL; endogenous in cells; host or cells: H1299
T1 sequence (P30530 26-894): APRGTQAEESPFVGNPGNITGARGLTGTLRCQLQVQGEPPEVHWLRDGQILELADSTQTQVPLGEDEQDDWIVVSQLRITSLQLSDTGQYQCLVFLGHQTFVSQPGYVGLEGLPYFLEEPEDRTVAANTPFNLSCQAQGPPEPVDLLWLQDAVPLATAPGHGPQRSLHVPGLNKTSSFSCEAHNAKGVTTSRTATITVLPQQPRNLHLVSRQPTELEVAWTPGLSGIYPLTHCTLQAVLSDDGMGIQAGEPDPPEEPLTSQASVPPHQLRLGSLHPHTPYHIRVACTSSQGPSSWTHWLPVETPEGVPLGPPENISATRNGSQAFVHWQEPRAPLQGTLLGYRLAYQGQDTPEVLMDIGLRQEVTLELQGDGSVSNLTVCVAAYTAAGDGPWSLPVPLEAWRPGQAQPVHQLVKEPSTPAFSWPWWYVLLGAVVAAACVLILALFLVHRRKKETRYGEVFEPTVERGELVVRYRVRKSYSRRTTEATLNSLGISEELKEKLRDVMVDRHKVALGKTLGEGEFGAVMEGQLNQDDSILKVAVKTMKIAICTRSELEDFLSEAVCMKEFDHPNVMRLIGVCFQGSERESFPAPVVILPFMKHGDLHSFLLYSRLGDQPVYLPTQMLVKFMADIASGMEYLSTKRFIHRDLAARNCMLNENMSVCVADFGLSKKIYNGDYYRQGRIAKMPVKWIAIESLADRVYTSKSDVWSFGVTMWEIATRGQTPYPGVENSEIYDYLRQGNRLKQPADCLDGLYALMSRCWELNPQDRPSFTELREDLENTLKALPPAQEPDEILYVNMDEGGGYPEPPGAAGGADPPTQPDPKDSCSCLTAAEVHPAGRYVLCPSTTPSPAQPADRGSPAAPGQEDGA
Experiment: pAXL inhibition assay in H1299 cells (ELISA)
Type: cell-based
Details: rhGAS6 stimulation, N=19 (FIG. 2)
Method: The ability of Compound 1 to modulate AXL activity was evaluated in tumor cell lines expressing high levels of endogenous AXL.
H1299 cells were plated (30,000 cells/well) in 96-well tissue-culture plates (Costar, Corning Incorporated, Corning, N.Y.) and incubated overnight at 37° C. with 5% CO2. Compound 1 at an appropriate concentration was added and incubated for 1 hour at 37° C. with 5% CO2. rhGAS6 (R&D Systems, Minneapolis, Minn.; #885-GSB) was added at 1 μg/mL to each well, and plates were incubated at 37° C. with 5% CO2 for 15 minutes. Cells were harvested and lysed in 110 μL of ice-cold lysis buffer (Cell Signaling Technology, Danvers, Mass.; #9803) with protease and phosphatase inhibitors (ThermoFisher Scientific; #78446) for 1 hour on ice and stored at −80° C. for ELISA. ELISA plates were prepared by incubating Greiner lumitrac high-binding plates with 8 μg/mL of anti-AXL antibody (R&D Systems; MAB154) overnight at room temperature. The plates were washed and blocked with phosphate buffered saline (PBS) with 0.1% BSA. Cell lysates were loaded onto ELISA plates and incubated 2 hours at room temperature. […] The plates were gently shaken for 15 minutes at room temperature and read on the PheraStar (BMG Labtech). […]

`CC(C)C(=O)N1CCC(c2cc(-c3ccc(NC(=O)c4cn(C(C)C)c(=O)n(-c5ccccn5)c4=O)cc3)c3c(N)ncnn23)CC1` [Compound 1, N-(4-(4-Amino-7-(1-isobutyrylpiperidin-4-yl)pyrrolo[1,2-f][1,2,4]triazin-5-yl)phenyl)-1-isopropyl-2,4-dioxo-3-(pyridin-2-yl)-1,2,3,4-tetrahydropyrimidine-5-carboxamide] was tested, and the IC50 was 1.8 ± 0.63 nM.

Source: US12214036B2, “Combination therapy comprising AXL/MER and PD-1/PD-L1 inhibitors” (Incyte Corporation, priority 2020, dated 2025)
